The text below walks through data of ChEMBL document CHEMBL1201862, “PubChem BioAssay data set” (2004).

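Following 48 hours of exposure in 96-well plates, responses at five concentrations were used to interpolate endpoints linearly. Here, GI50 denotes the concentration required for 50% inhibition of growth.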 The source made the active and inactive calls. Rule as the data show it: active = GI50 up to about 1.1 µM and inactive = higher.

Among the test systems are KM12; HT-29; HL-60; LOX IMVI; SN12C; ACHN; CCRF-CEM; OVCAR-5; M14; A549; SW-620; NCI-H226; CAKI-1; 786-0; HOP-92; SK-MEL-2; OVCAR-8.
Holding throughout (assay): NCI-60 cell line screen, 48 h

On to `CC(C)(C)C(=O)ON1N=NC2C3CC(OCc4ccccc4)(OCc4ccccc4)C(O3)C21` (centres undefined), for which the GI50 in the assay on KM12 is 23.6 µM (inactive); in the assay on HT-29, 22.3 µM (inactive); in the assay with HL-60, 3.79 µM (inactive); in the assay with LOX IMVI, 15.4 µM (inactive); with SN12C it was 19.3 µM (inactive); in the assay with ACHN it was 27.7 µM (inactive). The GI50 in the assay with CCRF-CEM is 4.4 µM (inactive); in the assay on OVCAR-5, 33.6 µM (inactive); with M14 it was 26.4 µM (inactive); with A549, 32.7 µM (inactive); in the assay with SW-620, 14.9 µM (inactive); with NCI-H226 it was 17.7 µM (inactive). The GI50 in the assay with CAKI-1 was 31 µM (inactive); in the assay with 786-0, 18.5 µM (inactive); in the assay on HOP-92, 12 µM (inactive); with SK-MEL-2 it was 19.1 µM (inactive).
`O=Cc1ccccc1OCCOc1cc(OCCOc2ccccc2C=O)c(OCCOc2ccccc2C=O)cc1OCCOc1ccccc1C=O`: the GI50 with KM12 is > 100 µM (inactive); in the assay with HT-29 it was > 100 µM (inactive); with HL-60 it was > 78.2 µM (inactive); in the assay on LOX IMVI, 36.5 µM (inactive); in the assay on SN12C it was > 100 µM (inactive); with ACHN, 47.3 µM (inactive). Moreover, the GI50 with CCRF-CEM is > 37.1 µM (inactive); in the assay with OVCAR-5, > 100 µM (inactive); in the assay with M14, > 83.9 µM (inactive); in the assay on A549 it was > 100 µM (inactive); with SW-620 it was 46.5 µM (inactive); in the assay with NCI-H226 it was > 54.8 µM (inactive). Moreover, the GI50 was > 70.6 µM (inactive) in the assay with CAKI-1; 24.2 µM (inactive) in the assay with 786-0; 26.2 µM (inactive) in the assay on HOP-92; 47.1 µM (inactive) with OVCAR-8; 44.9 µM (inactive) in the assay with SK-MEL-2.
Regarding `CCC/C=C1\CCC(CN(C)C)C1=O` (centres undefined), the GI50 in the assay with KM12 is 4.67 µM (inactive); in the assay on HT-29 it was 8.11 µM (inactive); in the assay on HL-60, 9.25 µM (inactive); with LOX IMVI, 7.35 µM (inactive); in the assay with SN12C, 16.9 µM (inactive); with ACHN it was 5.62 µM (inactive). The GI50 was 1.09 µM (active) in the assay with CCRF-CEM; 20 µM (inactive) with OVCAR-5; 6.52 µM (inactive) with M14; 29.6 µM (inactive) in the assay with A549; 4.6 µM (inactive) in the assay on SW-620; 19 µM (inactive) in the assay with NCI-H226. Besides, the GI50 in the assay on CAKI-1 is 2.13 µM (inactive); with 786-0, 2.81 µM (inactive); in the assay on HOP-92 it was 3.04 µM (inactive); in the assay on OVCAR-8 it was 10.2 µM (inactive); in the assay on SK-MEL-2 it was 15.9 µM (inactive).
In the case of `COc1cc(/C=C/c2csnn2)cc(OC)c1OC`, the GI50 with KM12 is > 100 µM (inactive); in the assay with HT-29, > 100 µM (inactive); with HL-60, > 100 µM (inactive); with LOX IMVI, > 100 µM (inactive); in the assay with SN12C, > 100 µM (inactive); in the assay with ACHN it was 78.3 µM (inactive). The GI50 with CCRF-CEM, in the assay with OVCAR-5, in the assay on M14, in the assay with A549, in the assay with SW-620 and in the assay on NCI-H226 was > 100 µM (inactive) in each case. In addition, the GI50 is > 100 µM (inactive) with CAKI-1; > 100 µM (inactive) with 786-0; 66.7 µM (inactive) in the assay with HOP-92; > 100 µM (inactive) with OVCAR-8; > 100 µM (inactive) in the assay on SK-MEL-2.
On to `Cc1nc(C(N)=S)sc1C(=O)CC(=O)C(=O)Nc1c(C(C)C)cccc1C(C)C`, for which the GI50 was 40.7 µM (inactive) in the assay with KM12; 37.3 µM (inactive) in the assay with HT-29; 28 µM (inactive) with HL-60; 49.3 µM (inactive) with LOX IMVI; 56.8 µM (inactive) with SN12C; 81.5 µM (inactive) in the assay with ACHN. For the same compound, the GI50 was 44.7 µM (inactive) in the assay with CCRF-CEM; > 100 µM (inactive) in the assay with OVCAR-5; 35.2 µM (inactive) in the assay on M14; 35.8 µM (inactive) in the assay on A549; 48.9 µM (inactive) with SW-620; 41.4 µM (inactive) with NCI-H226. In addition, the GI50 with CAKI-1 was 42.1 µM (inactive); with 786-0, 50.4 µM (inactive); in the assay on HOP-92, 26.9 µM (inactive); in the assay with OVCAR-8, 36 µM (inactive); in the assay on SK-MEL-2, 65.5 µM (inactive).
For the compound `COC(=O)/C(=N/NC(N)=O)C(C(=O)OC)C(=O)C(=O)Nc1ccc(Cl)cc1` (centres undefined), the GI50 is > 100 µM (inactive) with KM12; > 100 µM (inactive) with HT-29; > 76.2 µM (inactive) in the assay with HL-60; > 83.2 µM (inactive) with LOX IMVI; > 100 µM (inactive) in the assay on SN12C; > 100 µM (inactive) with ACHN. In addition, the GI50 in the assay on CCRF-CEM is > 50.1 µM (inactive); in the assay with OVCAR-5, > 100 µM (inactive); in the assay on M14 it was > 100 µM (inactive); in the assay on A549 it was > 100 µM (inactive); with SW-620 it was > 100 µM (inactive); with NCI-H226, > 100 µM (inactive). Further, the GI50 with CAKI-1, in the assay with 786-0, with HOP-92, in the assay on OVCAR-8 and in the assay with SK-MEL-2 was > 100 µM (inactive) each time.
For the compound `CCOc1cccc2c1N[S@@](=O)S2`, the GI50 in the assay on KM12, in the assay with HT-29, with HL-60, in the assay with LOX IMVI, with SN12C and with ACHN was > 100 µM (inactive) each time. The GI50 with CCRF-CEM was 40.6 µM (inactive); with M14 it was > 100 µM (inactive); with A549 it was > 100 µM (inactive); in the assay with SW-620, > 100 µM (inactive); with NCI-H226, > 100 µM (inactive); in the assay with CAKI-1 it was > 100 µM (inactive). Further, the GI50 in the assay with 786-0, in the assay on HOP-92 and in the assay on SK-MEL-2 was > 100 µM (inactive) in each case.
On to `O=C(Nc1cccc(Cl)c1)C(=O)C(C(=O)c1ccc2ccccc2c1)C1OC(=O)c2ccccc21` (centres undefined), for which the GI50 was 22.6 µM (inactive) in the assay with KM12; 31.9 µM (inactive) with HT-29; 9.16 µM (inactive) with HL-60; 17.3 µM (inactive) in the assay with LOX IMVI; 18.6 µM (inactive) with SN12C; 25.4 µM (inactive) in the assay with ACHN. In addition, the GI50 with CCRF-CEM was 11.2 µM (inactive); in the assay on OVCAR-5, 24.8 µM (inactive); in the assay on M14, 16 µM (inactive); in the assay with A549, 30 µM (inactive); in the assay with SW-620, 18.9 µM (inactive); in the assay on NCI-H226 it was 2.86 µM (inactive). Also, the GI50 is 18.5 µM (inactive) in the assay on CAKI-1; 10.6 µM (inactive) with 786-0; 20.6 µM (inactive) with HOP-92; 13.9 µM (inactive) in the assay on OVCAR-8; 14.6 µM (inactive) in the assay with SK-MEL-2.
Take `CC(=O)NC1=C(C)C(=O)c2c(nc3n2CCC3O)C1=N` (centres undefined): the GI50 in the assay on KM12 was 18.5 µM (inactive); with HT-29 it was 17.6 µM (inactive); with HL-60, 4.49 µM (inactive); in the assay on LOX IMVI, 5.85 µM (inactive); in the assay on SN12C, 6.19 µM (inactive); with ACHN, 16.3 µM (inactive). The GI50 is 2.93 µM (inactive) in the assay with CCRF-CEM; 21.6 µM (inactive) in the assay on OVCAR-5; 30.8 µM (inactive) in the assay on A549; 13.3 µM (inactive) in the assay with SW-620; 17.4 µM (inactive) in the assay on NCI-H226; 13.4 µM (inactive) in the assay with CAKI-1. Further, the GI50 is 18.6 µM (inactive) in the assay on 786-0, 4.36 µM (inactive) with HOP-92, 4.55 µM (inactive) in the assay on OVCAR-8 and 9.68 µM (inactive) in the assay with SK-MEL-2.
